Source: the NIST ThermoML archive (doi:10.1021/acs.jced.5b00536)
“And” between values parts separate entries of the source, which are not always exact repeats. Equal values may be shown once.

Experiment: xn = mol fraction of the nth substance listed
Details: 100 kPa, Liquid, x2 = 0.79; for electrical conductivity: Alternating current cell with electrodes; for mass density: Buoyancy - hydrostatic balance

[Ca+2].[F-].[F-] [calcium fluoride] + [F-].[Li+]
Details | electrical conductivity [S/m] | mass density
1063.8 K | 0.053003 | –
1065.5 K | 0.053101 | –
1067.1 K | 0.053153 | –
1068.8 K | 0.05333 | –
1070.4 K | 0.05353 | –
1071.9 K | 0.05375 | –
1073.5 K | 0.05359 | –
1075.2 K | 0.0537 | –
1075.7 K | – | 2107.8 kg/m3
1075.9 K | – | 2107.3 kg/m3
1076.2 K | – | 2106.7 kg/m3 and 2107.8 kg/m3
1076.7 K | – | 2106.6 kg/m3
1076.8 K | 0.05368 | 2106 kg/m3
1077.1 K | – | 2106 kg/m3
1077.5 K | – | 2105.4 kg/m3
1077.7 K | – | 2104.8 kg/m3
1078 K | – | 2104.8 kg/m3
1078.4 K | – | 2104.2 kg/m3
1078.5 K | 0.05386 | –
1078.7 K | – | 2104.1 kg/m3
1079.1 K | – | 2103.5 kg/m3
1079.4 K | – | 2103.5 kg/m3
1079.8 K | – | 2102.9 kg/m3
1080 K | – | 2102.9 kg/m3
1080.1 K | 0.05394 | –
1080.3 K | – | 2102.3 kg/m3
1080.7 K | – | 2101.7 kg/m3
1081.1 K | – | 2101.6 kg/m3
1081.4 K | – | 2101 kg/m3
1081.8 K | 0.054 | 2101 kg/m3
1082 K | – | 2100.4 kg/m3
1082.4 K | – | 2099.8 kg/m3
1082.9 K | – | 2099.7 kg/m3
1083.4 K | 0.0542 | –
1083.5 K | – | 2099.1 kg/m3
1083.6 K | – | 2099.1 kg/m3
1083.8 K | – | 2098.5 kg/m3
1084.3 K | – | 2098.5 kg/m3
1084.5 K | – | 2097.9 kg/m3
1085 K | – | 2097.8 kg/m3
1085.1 K | 0.05436 | –
1085.5 K | – | 2097.2 kg/m3
1085.9 K | – | 2096.6 kg/m3
1086.1 K | – | 2096.6 kg/m3
1086.4 K | – | 2096 kg/m3
1086.8 K | 0.05455 | –
1086.9 K | – | 2095.9 kg/m3
1087.2 K | – | 2095.3 kg/m3
1087.8 K | – | 2094.7 kg/m3
1088.2 K | – | 2094.7 kg/m3
1088.4 K | 0.05469 | –
1088.6 K | – | 2094.1 kg/m3
1088.8 K | – | 2094 kg/m3
1089.3 K | – | 2093.4 kg/m3
1089.5 K | – | 2092.8 kg/m3
1090 K | – | 2092.8 kg/m3
1090.1 K | 0.05496 | –
1090.5 K | – | 2092.2 kg/m3
1090.8 K | – | 2092.1 kg/m3
1091.2 K | – | 2093.7 kg/m3
1091.7 K | – | 2093.7 kg/m3
1091.8 K | 0.05506 | –
1091.9 K | – | 2093.1 kg/m3
1092.8 K | – | 2091.9 kg/m3 and 2092.4 kg/m3
1093.1 K | – | 2091.3 kg/m3
1093.4 K | 0.05525 | –
1093.8 K | – | 2091.2 kg/m3
1094.1 K | – | 2090.6 kg/m3
1094.4 K | – | 2090.6 kg/m3
1094.8 K | – | 2092.8 kg/m3
1095 K | – | 2092.2 kg/m3
1095.1 K | 0.05547 | –
1095.5 K | – | 2092.1 kg/m3
1096.2 K | – | 2090.9 kg/m3
1096.3 K | – | 2090.9 kg/m3 and 2091.5 kg/m3
1096.7 K | – | 2090.3 kg/m3
1096.8 K | 0.0556 | –
1096.9 K | – | 2089.7 kg/m3
1097.3 K | – | 2089.1 kg/m3
1097.6 K | – | 2089.1 kg/m3
1098 K | – | 2088.5 kg/m3
1098.4 K | – | 2087.9 kg/m3
1098.5 K | 0.05571 | –
1098.8 K | – | 2087.3 kg/m3
1099.1 K | – | 2087.2 kg/m3
1099.5 K | – | 2086.6 kg/m3
1099.9 K | – | 2086 kg/m3
1100.2 K | 0.05586 | 2086 kg/m3
1100.7 K | – | 2085.4 kg/m3
